These results are taken from paper PMC10685318, “Trans-cyclosulfamidate mannose-configured cyclitol allows isoform-dependent inhibition of GH47 α-D-mannosidases through a bump–hole strategy” (Chemical Science, 2023).

The target in this experiment is T1, MAN2A2 (Homo sapiens, UniProt P49641).
T1 construct: expressed in transfected cells
T1 sequence (P49641 1-1150): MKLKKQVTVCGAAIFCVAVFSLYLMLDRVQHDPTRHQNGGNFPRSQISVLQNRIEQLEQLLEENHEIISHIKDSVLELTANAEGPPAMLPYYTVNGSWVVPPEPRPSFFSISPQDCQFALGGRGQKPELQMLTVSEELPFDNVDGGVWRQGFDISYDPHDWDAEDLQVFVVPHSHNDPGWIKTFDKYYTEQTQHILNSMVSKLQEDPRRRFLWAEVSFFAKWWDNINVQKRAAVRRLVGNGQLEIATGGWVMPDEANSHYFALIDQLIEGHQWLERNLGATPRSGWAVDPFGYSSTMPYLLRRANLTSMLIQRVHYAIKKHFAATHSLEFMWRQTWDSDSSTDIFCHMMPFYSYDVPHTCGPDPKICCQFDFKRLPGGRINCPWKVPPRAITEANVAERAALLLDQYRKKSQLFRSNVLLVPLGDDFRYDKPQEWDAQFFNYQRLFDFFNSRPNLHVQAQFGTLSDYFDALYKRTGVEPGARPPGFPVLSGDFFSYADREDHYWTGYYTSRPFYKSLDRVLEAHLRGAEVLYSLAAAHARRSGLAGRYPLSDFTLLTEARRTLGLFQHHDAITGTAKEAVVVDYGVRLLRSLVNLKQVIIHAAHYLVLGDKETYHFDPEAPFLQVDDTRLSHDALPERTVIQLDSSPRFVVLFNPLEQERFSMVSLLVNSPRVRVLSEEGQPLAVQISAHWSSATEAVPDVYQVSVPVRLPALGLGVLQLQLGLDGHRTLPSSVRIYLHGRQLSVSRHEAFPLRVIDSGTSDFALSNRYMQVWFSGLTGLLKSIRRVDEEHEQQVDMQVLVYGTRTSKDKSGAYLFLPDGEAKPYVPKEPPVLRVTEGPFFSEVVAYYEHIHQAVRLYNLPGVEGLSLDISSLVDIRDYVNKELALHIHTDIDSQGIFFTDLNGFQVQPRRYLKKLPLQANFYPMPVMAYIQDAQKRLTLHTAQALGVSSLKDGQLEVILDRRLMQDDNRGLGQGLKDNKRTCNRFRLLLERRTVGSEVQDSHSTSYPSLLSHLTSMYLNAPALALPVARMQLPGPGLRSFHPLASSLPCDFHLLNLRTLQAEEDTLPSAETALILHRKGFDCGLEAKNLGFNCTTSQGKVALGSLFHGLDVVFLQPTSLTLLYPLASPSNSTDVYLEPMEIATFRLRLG
As to the kind of experiment: 4-MU-α-man activity assay in overexpressed cell lysates. In kind it is biochemical. From the text: Finally, selectivity versus a panel of related exo-mannosidases was investigated. We first tested inhibition against all five human GH38 retaining α-mannosidases in overexpressed cell lysates using 4-methylumbelliferyl-α-mannoside (4-MU-α-man): Golgi mannosidase II and IIx (MAN2A1 and MAN2A2), cytosolic MAN2C1 and lysosomal MAN2B1 and MAN2B2. This α-mannosidase family follows a different conformational itinerary than GH47: ^0S2 → B2,5 → ^1S5.[35] […] Of note, the presence of cobalt has been associated with conformational changes in the active site of some GH38 α-mannosidases, which might affect the binding interaction with inhibitors.[36] Nevertheless, additional research is required to explore which specific metal ion is present in the MAN2C1 active site in its in vivo state.
Trans-Cyclosulfamidate Cyclitols Males et al.
2.3 GH38 α-mannosidases and GH2 β-mannosidase inhibition studies
All chemicals were of analytical grade and purchased from Sigma-Aldrich unless stated otherwise.
Optimal stability of cell homogenates and enzyme working stocks was ensured by preparation and temporary storage on ice. Cell homogenates were prepared and used on the same day. Protein concentrations were quantified using the Pierce BCA Protein Assay Kit (ThermoFisher). Protein samples were measured in clear flat-bottom polystyrene 96 well microplates (Greiner Bio-One) using a EMax Plus Microplate Reader (Molecular Devices). Activity measurements of human GH38 α-mannosidases and bacterial β-mannosidase BtMan2A were performed in black flat-bottom polystyrene 96 wells microplates (Greiner Bio-One) and total fluorescence was measured using a Perkin Elmer LS-55 fluorescence spectrometer at wavelengths λex = 366 and λem = 445 nm, with the signal optimized for medium gain readings. The fluorescence values of each enzyme sample were corrected for the background signal of a blank sample containing no enzyme. In the case of IC50 determinations, values were normalized against a control sample containing enzyme without added inhibitor. For a single experiment, three separate curves were fitted from a technical triplicate by setting the inhibitor concentration in µM against the normalized response using GraphPad Prism 8.4.2 software. The Prism functions ‘[inhibitor] versus normalized response’ and ‘[inhibitor] versus normalized response -- variable slope’ were compared for each curve using the Akaike’s Information Criterion method to select the preferred model. Reported IC50 values are mean ± standard deviation from a biological […]
General cell culture protocol
HEK293T cells were grown to confluency at 37 °C under a 5% CO2 atmosphere in Dulbecco’s Modified Eagle’s Medium (DMEM) with a high glucose concentration (Capricorn Scientific, DMEM-HPXA) that was supplemented with 10% fetal calf serum, 0.1% (w/v) penicillin/streptomycin and 1% (v/v) Glutamax. Cells were passaged twice a week to new round polystyrene (PS) tissue culture dishes (Sarstedt) by detachment off the former culture plates by careful pipetting. To prepare cell pellets for activity measurements, plates were grown to confluency and harvested in phosphate buffered saline (PBS). After centrifugation at 1500 rpm for 5 min, the remaining PBS was aspirated and the cells were resuspended in fresh PBS. The concentration of the resulting suspension was then counted using a TC20 automated cell counter (BioRad). Aliquots were centrifuged at 2000 rpm for 5 min and the resulting cell pellets were stored at -80 °C until further use.
4-MU activity assay protocol for human GH38 α-mannosidases
HEK293T cells stably overexpressing human GH38 α-mannosidases MAN2A1, MAN2A2, MAN2B1, MAN2B2 and MAN2C1 were prepared as previously described[11] and were kindly donated by Dr. C. L.
Kuo. Homogenates were prepared by sonicating cell pellets (Sonics VibraCell, 5x1 s with 30 s interval at 20% amplitude) in 150 mM McIlvain buffer of pH 5.5 (MAN2A1, MAN2A2), pH 4.5 (MAN2B1, MAN2B2) or pH 6.7 (MAN2C1) containing either 2 mM ZnCl2 (MAN2A1, MAN2A2, MAN2B1, MAN2B2) […]

`O=S1(=O)N[C@@H]2[C@@H](O)[C@@H](O)[C@H](O)[C@@H](CO)[C@H]2O1` [compound 6, 1,6-trans-manno-cyclosulfamidate]: under “CoCl2”, the “activity when the buffer was enriched with CoCl2” value is given as “no activity”. Under “Zn2+”, this compound displayed an IC50 of more than 1000 µM.

The term IC50 denotes the point on the concentration scale where inhibition reaches its midpoint. Higher therefore signals a need for much substance.
